Results as given in patent US10220046B2, “Compositions and methods for disease treatment using nanoparticle delivered compounds” (THE REGENTS OF THE UNIVERSITY OF MICHIGAN, priority 2014, dated 2019).
Non-standard residues stand in square brackets, D forms with d. No end group written: not given here.

Tests used:
LCAT = target: T1, LCAT (Homo sapiens, UniProt P04180); conditions: cited from earlier work
T1 sequence (P04180 25-440): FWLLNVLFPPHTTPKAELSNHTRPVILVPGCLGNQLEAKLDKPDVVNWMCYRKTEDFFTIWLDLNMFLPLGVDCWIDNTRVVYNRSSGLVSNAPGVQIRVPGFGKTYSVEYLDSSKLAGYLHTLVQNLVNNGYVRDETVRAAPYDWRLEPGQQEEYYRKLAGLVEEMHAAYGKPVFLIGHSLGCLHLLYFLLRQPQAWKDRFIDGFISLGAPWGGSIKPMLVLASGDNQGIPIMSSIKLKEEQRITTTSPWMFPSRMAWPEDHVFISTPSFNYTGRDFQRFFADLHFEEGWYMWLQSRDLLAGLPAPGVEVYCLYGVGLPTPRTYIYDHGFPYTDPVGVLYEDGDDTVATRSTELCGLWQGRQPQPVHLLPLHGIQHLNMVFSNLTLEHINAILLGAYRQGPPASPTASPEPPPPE

NCI-H295R cells [1] = experiment: Colony formation assay; format: cell-based, human; conditions: clonogenic assay, 24 h treatment, with 50 μg/ml sHDL
Procedure: (§1) NCI-H295R and SW13 cells were plated in 6-well plates and allowed to attach. […] The medium was changed and surviving cells allowed to grow colonies of 50 cells or more for two weeks, then washed, fixed, and stained with coomassie blue and counted. Total colony numbers were normalized to untreated controls.

SW13 cells [2] = experiment: Colony formation assay; format: cell-based, human; conditions: clonogenic assay, 24 h treatment, with 50 μg/ml sHDL
Procedure: as §1

NCI-H295R cells [3] = experiment: Apoptosis by flow cytometry (annexin V-FITC/propidium iodide); format: cell-based, human; conditions: combination with sHDL vs. drug alone, 24 h
Procedure: (§2) Following treatment, cells were washed, re-suspended in annexin binding buffer and stained using annexin V-FITC/Propidium iodide as previously described (Subramanian et al., World J. Surg., 2014, 38(6): 1343-52). Induction of apoptosis was measured using the CyAn ADP Analyzer (Beckman Coulter, Inc., Indianapolis, Ind.).

SW13 cells [4] = experiment: as above; format: cell-based, human; conditions: combined with sHDL vs. drug alone, 24 h
Procedure: as §2

SW13 MCAs = experiment: Three dimensional multicellular aggregate (MCA) treatment; format: cell-based, human; conditions: in combination with 50 μg/ml sHDL, 24 h
Excerpt: (§3) To evaluate the translational potential of the combination therapy, three-dimensional multicellular aggregates were developed to mimic the in vivo tumor model as described by Jain et al. (Jain et al., Endocrine-related cancer. 2013 June; 20(3):361-70, herein incorporated by reference in its entirety). […] Untreated, sHDL alone treated cells served as controls. The MCAs were photographed before and after treatment and the MCAs were quantified by Image J software (NIH) as described by Jain et al.

NCI-H295R MCAs = experiment: as above; format: cell-based, human; conditions: in combination with 50 μg/ml sHDL, 24 h
Excerpt: as §3

[5] = system: genes involved in steroidogenesis in NCI-H295R cells; experiment: Real time RT-PCR of genes involved in steroidogenesis; format: cell-based, human; conditions: combination with sHDL compared to monotherapy, 24 h; decreased for P and M, increased for E
Procedure: RNA from the NCI-H295R cells after drug treatment for 24 h was prepared using Qiagen RNA isolation kit (Qiagen Sciences, Valencia, Calif.). Approximately 500 ng of RNA was reverse transcribed using superscript RT kit from Life Technologies (Grand Island, N.Y.). qPCR was performed in a step-one RT PCR machine using the gene specific primer sets (Table 3) as published (11). Relative gene expression levels were calculated after normalization with internal control.

NCI-H295R cells [6] = experiment: Mitochondrial membrane potential (TMRE); format: cell-based, human; conditions: combination with sHDL vs. drug alone, 24 h
Procedure: (§4) SW13 and NCI-H295R were seeded in a 96 well black wall plate. Once attached, they were treated with the drugs as described above. 24 h post drug treatment, 500 nM tetramethylrhodamine, ethyl ester (TMRE) was added and the cells were incubated for 20 minutes at 37° C. and the fluorescent signal was measured after washing using a microplate reader (excitation=549, emission=575). 100 nM FCCP (carbonyl cyanide 4-(trifluoromethoxy)phenylhydrazone) was added to cells 10 minutes before the addition of TMRE as a negative control.

SW13 cells [7] = experiment: Mitochondrial membrane potential (TMRE); format: cell-based, human; conditions: combination with sHDL vs. drug alone, 24 h
Procedure: as §4

[8] = system: cortisol production of NCI-H295R cells; experiment: Cortisol immunoassay of culture supernatant; format: cell-based, human; conditions: 24 h
Procedure: The cortisol immunoassay (Alpco, Salem, N.H.) was used to quantitate cortisol levels in the culture supernatant of steroid producing NCI-H295R cells after treatment with drug combinations (same as in clonogic assay) for 24 h per the manufacturer instructions. Briefly, culture supernatant after treatment was added to the antibody coated-plates containing assay buffer (45 minutes at 25° C.). After washing, tetra methyl benzidine (TMB) substrate was incubated at RT and absorbance measured using a Synergy Neo reader (BioTek, Winooski, Vt.).

[9] = sHDL nanoparticle formation and loading with additional anticancer agents; format: physicochemical; conditions: agent in place of WGA-TA
Excerpt: The composition as described in Example was made with various anticancer agents in place of WGA-TA.

[10] = system: adrenocortical carcinoma (ACC); conditions: advanced ACC patients; cited from earlier work
SW13 and NCI-H295R cells = experiment: Cell viability assay (CellTiter-Glo) and combination index; format: cell-based, human
Procedure: Serial dilutions were made from the starting concentrations and viability of cells was then measured based on quantification of the ATP levels after treatment with CellTiter-Glo luminescent assay reagent as per the manufacturer's instruction (Promega, Madison, Wis.) with luminescence quantified using a BioTek Synergy Neo plate reader (BioTek, Winooski, Vt.). […] For all cell-based experiments, the experimental control group was defined, unless stated otherwise, as untreated cells or cells treated with single drug alone (when comparing to combination regimens).

[11] = Metabolite analysis in mouse plasma by LC-MS/MS; format: in vivo, CD-1 white mice; conditions: IV 4 mg/kg WGA-TA in dextran formulation, 30 minutes after administration
Procedure: CD-1 white mice were given an IV dosage of 4 mg/kg WGA-TA in dextran formulation. Samples of blood was collected at different time points in heparin treated tubes and the plasma collected after centrifugation at 13,000 rpm for 10 min and was frozen at −80° C. for later analysis. For the evaluation of metabolites, 300 uL of ice-cold acetonitrile was added to 100 uL of the mouse plasma and then centrifuged at 4° C. in 15000 rpm for 10 minutes. The top supernatant was dried under a stream of nitrogen gas. The residue was finally reconstituted in a 100 uL solution of 20% acetonitrile (80% water). Blank plasma needed for the control was prepared from untreated CD-1 white mice blood as above. As a negative control, blank plasma spiked with WGA-TA before extraction was used. The LC-MS/MS analysis was conducted using a Shimadzu HPLC system coupled with an API 4500 mass spectrometer (Applied Biosystems, MDS Sciex Toronto, Canada), equipped with an API electrospray ionization (ESI) source. Enhanced MS, product ion-scan, and MRM scan were used as a survey scan to identify metabolites of WGA-TA. Information dependent acquisition (IDA) was used to collect fragmentation of metabolite candidates or single experiment of enhanced product ion scan was applied to acquire fragmentation of metabolites after running survey scan. […]

PVLELFENLLERLLDALQKKLK (listed as Homo sapiens) [SEQ ID NO:2, ApoA-I agonist peptide]
LCAT activation as compared with native ApoA-I (LCAT): 86%

COc1cc([C@@H]2c3cc4c(cc3[C@@H](O[C@@H]3O[C@@H]5CO[C@@H](C)O[C@H]5[C@H](O)[C@H]3O)[C@H]3COC(=O)[C@H]23)OCO4)cc(OC)c1O [etoposide]
higher reduction in viability, combination compared to single drug alone (NCI-H295R cells [1]): 44.6% | higher reduction in viability, combination compared to single drug alone (SW13 cells [2]): 39.52% | increase in the percentage of apoptotic cells (early and late) (NCI-H295R cells [3]): 36.46% | increase of necrotic cell death (SW13 cells [4]): 21.33% | reduction in MCAs (SW13 MCAs): ~25% | reduction in MCAs (NCI-H295R MCAs): approximately 50% | HSD3B2 level [5]: 2.1 fold change | reduction in mitochondrial potential ΔΨ (NCI-H295R cells [6]): 9.2% | reduction in mitochondrial potential ΔΨ (SW13 cells [7]): 31.54% | decrease of cortisol production levels ([8]; drug alone vs. controls): 82.1% | decrease of cortisol production levels ([8]; in combination with sHDL): not significantly different

Ac-PVLDEFREKLNEELEALKQKLK-NH2 [consensus 22-mer]
LCAT activation as compared with native ApoA-I (LCAT): 10%

CC[C@@]1(O)C(=O)OCc2c1cc1n(c2=O)Cc2cc3cc(O)ccc3nc2-1 [10-hydroxy camptothecin]
nanoparticle formation and loading in sHDL [9]: Successful nanoparticle formation and loading

O=NN(CCCl)C(=O)NC1CCCCC1 [CCNU, lomustine]
nanoparticle formation and loading in sHDL [9]: Successful nanoparticle formation and loading

pVLELFENLLERLLDALQKKLK ([dP]VLELFENLLERLLDALQKKLK) [SEQ ID NO:3, ApoA-I agonist peptide with D-Pro at X1]
LCAT activation as compared with native ApoA-I (LCAT): 111%

Clc1ccc(C(c2ccccc2Cl)C(Cl)Cl)cc1 (stereo not shown) [mitotane]
higher reduction in viability, combination compared to single drug alone (NCI-H295R cells [1]): 39.1% | higher reduction in viability, combination compared to single drug alone (SW13 cells [2]): 22.3% | increase in the percentage of apoptotic cells (early and late) (NCI-H295R cells [3]): 36.01% | increase of apoptotic cell death (SW13 cells [4]): 11.9% | reduction in MCAs (SW13 MCAs): approximately 50% | reduction in MCAs (NCI-H295R MCAs): ~30% | improvement in survival rate [10]: 14-50 months | initial response rates [10]: 20-30% | IC50 value (SW13 and NCI-H295R cells; SW13 cells compared to NCI-H295R cells): higher IC50 value | HSD3B2 level [5]: 0.2 fold change | reduction in mitochondrial potential ΔΨ (NCI-H295R cells [6]): 14.49% | reduction in mitochondrial potential ΔΨ (SW13 cells [7]): 19.8% | decrease of cortisol production levels ([8]; drug alone vs. controls): 84.7% | decrease of cortisol production levels ([8]; in combination with sHDL): not significantly different

CC(=O)OCC1=C(C)C[C@H]([C@@H](C)C2CC[C@H]3[C@@H]4C[C@H]5O[C@]56[C@@H](OC(C)=O)C=CC(=O)[C@]6(COC(C)=O)[C@H]4CC[C@]23C)OC1=O (stereo partly shown) [WGA-TA, 4, 19, 27-triacetyl withalongolide A]
metabolic identification in plasma [11]: three deacetylation products

CC(=O)O[C@H]1C(=O)[C@@]2(C)[C@H]([C@H](OC(=O)c3ccccc3)[C@]3(O)C[C@H](OC(=O)[C@H](O)[C@@H](NC(=O)c4ccccc4)c4ccccc4)C(C)=C1C3(C)C)[C@]1(OC(C)=O)CO[C@@H]1C[C@@H]2O [paclitaxel]
nanoparticle formation and loading in sHDL [9]: Successful nanoparticle formation and loading

COc1cccc2c1C(=O)c1c(O)c3c(c(O)c1C2=O)C[C@@](O)(C(=O)CO)C[C@@H]3O[C@H]1C[C@H](N)[C@H](O)[C@H](C)O1 [doxorubicin]
combination index (CI) (SW13 and NCI-H295R cells; combined with sHDL nanoparticles (25 and 50 μg/ml), Chou-Talalay, 72 h): > 1

CC(=O)O[C@@]12CO[C@@H]1C[C@H](O)[C@@]1(C)C(=O)[C@H](O)C3=C(C)[C@@H](OC(=O)[C@H](O)[C@@H](NC(=O)OC(C)(C)C)c4ccccc4)C[C@@](O)([C@@H](OC(=O)c4ccccc4)[C@H]21)C3(C)C [docetaxel]
nanoparticle formation and loading in sHDL [9]: Successful nanoparticle formation and loading

N.N.[Cl][Pt][Cl] [cisplatin]
increase in the percentage of apoptotic cells (early and late) (NCI-H295R cells [3]): 6.16% | increase of necrotic cell death (SW13 cells [4]): 14.71% | reduction in MCAs (SW13 MCAs): approximately 50% | reduction in MCAs (NCI-H295R MCAs): Approximately 20% | HSD3B2 level [5]: 0.1 fold change | reduction in mitochondrial potential ΔΨ (NCI-H295R cells [6]): 13.09% | reduction in mitochondrial potential ΔΨ (SW13 cells [7]): 6.5% | decrease of cortisol production levels ([8]; drug alone vs. controls): 8.39% | decrease of cortisol production levels ([8]; in combination with sHDL): 82%
